Experiments:
[1] = system: high fat+fructose (HF/HS) diet hamsters; experiment: 18-day oral dosing lipid study in HF/HS hamsters; format: in vivo, male Golden Syrian hamsters
Protocol: We examined the effects of diet modulation on the lipid profile of male Syrian Golden hamsters. Hamsters were ordered from Charles River Labs (Wilmington, Mass.), and requested to be 111-120 g in weight (correspondingly 56-61 days old). Hamsters were kept in cages of 4-5 per cage, and maintained on a standard light cycle of 12 hours on/12 hours off. All diets were obtained from Dyets, Inc. (Bethlehem, Pa.). “Normal Diet” was a standard rodent chow, catalog #5001, produced into pellets. Water and this standard chow diet were available to this group of hamsters ad libitum. Food was added to cages as needed, but no less frequently than twice per week. “High Fat Diet” was the same standard rodent chow supplemented with the following: 11.5% corn oil, 11.5% coconut oil, 0.5% cholesterol, and 0.25% deoxycholate. This is also available directly from Dyets, Inc., as catalog #611201. Both diets were ordered in 10 kg batches and stored at 4° C. for durations of the experiments (4-8 weeks), and at −20° C. for longer storage (up to six months). Water and this high fat diet were available to this group of hamsters ad libitum. The “High Fat+Fructose” group was fed the same fat-supplemented chow as the “high fat diet” group (#611201), but water was supplemented with fructose to a final concentration of 10%. Fructose was supplied from Now Foods (catalog #6931) and distributed by Lucky Vitamin (catalog #WB48432). Fructose water was prepared by adding 400 g of fructose to 4 L of water and stirring at room temperature until dissolved. Fructose water was stored at 4° C. until use. When provided to hamsters, fructose water was kept in a water bottle in the hamster cages at room temperature, exactly as standard water was. Fructose water and high fat chow were provided to this group of hamsters ad libitum. All animals remained on their respective diets for 21 days.
To begin this experiment, hamsters were randomly assigned to groups defined by the diet modifications above. After a fixed time, blood was collected from hamsters (N=3-4) to determine the lipid contents of the plasma. Because of limitations in the ability to adequately collect blood from hamsters, all blood samples were obtained via a terminal cardiac puncture preceded by asphyxiation with carbon dioxide. Blood (approximately 2 mL volume) was collected with a 22 G needle into a 5 mL syringe and transferred to a K2EDTA tube. The samples were kept on ice until centrifugation (14,000 rpm for 10 minutes at 4° C.) to separate plasma. Plasma was then aliquoted to tubes for storage at −80° C. until analysis.
Lipid parameters were determined using commercially available kits from Wako USA (Richmond, Va.) according to manufacturer's directions.
Male Golden Syrian hamsters were purchased from Charles River Labs (111-120 g, 56-61 days) and acclimated to a high fat+fructose (herein, referred to as “HF/HS”) diet as described above for two weeks. Hamsters were assigned into cohorts by body weight after two weeks' acclimation to the diet. […] Hamsters were dosed once per day for a total of 18 days. All animals remained on the above-described HF/HS diet throughout the dosing period. Dosing solutions for each cohort were prepared for 7 days at a time, although enough was prepared to last for 8 days. Each solution was stored at room temperature between administrations. Cohorts were defined according to Table 2 below.

SR-BI mRNA = experiment: qPCR of liver mRNA in HF/HS hamsters; format: in vivo, hamster; details: ARI-001 2240 mg/kg oral 18 days; relative to mean of vehicle
Excerpt: (§1) Hamster livers and adipose were preared in manners similar to that described for ARI-001 concentration determination. Briefly, to prepare for analysis, a sample of liver was excised from the frozen mass, weighed, and homogenized with a tissue grinder followed by sonication in buffer. The solid materials were then removed by centrifugation. The resulting lysate was used in qPCR analysis to quantify the specific mRNA measured (vide infra) using primers designed for the specific sequences of interest. All mRNA quantities were normalized to vehicle-treated animal, and mRNA levels were expressed as a fold increase or decrease relative to vehicle-treated. […] During grinding, liquid nitrogen was added to ensure the sample of adipose remained solid. The ground sample was transferred to a tared tube to weigh total sample. This ground sample was treated with buffer and prepared for qPCR to quantify specific mRNA quantities.

ABCA1 mRNA = experiment: qPCR of liver mRNA in HF/HS hamsters; format: in vivo, hamster; details: ARI-001 2240 mg/kg oral 18 days; relative to mean of vehicle
Excerpt: as §1

ApoAI mRNA = experiment: qPCR of liver mRNA in HF/HS hamsters; format: in vivo, hamster; details: ARI-001 2240 mg/kg oral 18 days; relative to mean of vehicle
Excerpt: as §1

[2] = ARI-001 2240 mg/kg oral once daily 18 days, plasma, mean ± SD
[3] = ARI-001 2240 mg/kg vs molar equivalent niacin 1200 mg/kg, 18 days

O=C(O)c1ccc(CCN2CCOCC2)nc1 [ARI-001]
TC (total cholesterol) ([1]; ARI-001 2240 mg/kg (9.75 mmol/kg) oral gavage once daily 18 days, plasma, mean ± SD): 343 ± 104 mg/dL | HDL/TC ([1]; ARI-001 2240 mg/kg oral once daily 18 days, mean ± SD): 0.48 ± 0.07 | FFA (free fatty acids) [1, 2]: 0.75 ± 0.15 mEq/L | HDL [1, 2]: 186 ± 74 mg/dL | LDL [1, 2]: 114 ± 33 mg/dL | TG (triglycerides) [1, 2]: 138 ± 80 mg/dL | efficacy relative to niacin, LDL cholesterol parameter [1, 3]: at least 1.67 times | efficacy relative to niacin, total cholesterol parameter [1, 3]: at least 1.54 times | increase of absolute HDL value compared to vehicle ([1]; ARI-001 2240 mg/kg, 18 days): 33% | TC (total cholesterol) ([1]; ARI-001 […] (4.88 mmol/kg) oral gavage once daily 18 days, plasma, mean ± SD): 653 ± 194 mg/dL | Liver SR-BI mRNA per mg tissue (SR-BI mRNA): 1.50 ± 0.33 fold-change | Liver ABCA1 mRNA per mg tissue (ABCA1 mRNA): 1.54 ± 0.48 fold-change | Liver ApoAI mRNA per mg tissue (ApoAI mRNA): 1.72 ± 0.24 fold-change

From US8937063B2 (Trustees of Tufts College, priority 2010, dated 2015)
